From patent US12138329B2, “Gel cleansing agent” (SHISEIDO HONEYCAKE INDUSTRIES CO., LTD., priority 2019, dated 2024)

Assay: pH of 1% aqueous solution
Assay type: physicochemical
Conditions: polyoxyethylene alkyl ether carboxylate

pH of 1% aqueous solution, 60% neutralization (60% neutralization): about 5.7
pH of 1% aqueous solution, 90% neutralization (90% neutralization): about 6.5
pH of 1% aqueous solution, 100% neutralization (100% neutralization): about 7.8
Substance: NaOH
